Experimental data reported in ChEMBL document CHEMBL4371025, “Discovery and evaluation of novel FAAH inhibitors in neuropathic pain model” (Bioorg Med Chem Lett, 2019).

Tests used:
[1] = AUC (0 to 48 hrs) in plasma of Sprague-Dawley rat at 10 mg/kg, po administered as single dose via gavage by LC-MS/MS analysis; format: ADME, organism-based; parameters: time < 48 hr, dose 10 mg/kg, route oral
Cytochrome P450 2C9 = Cytochrome P450 2C9 (Homo sapiens, UniProt P11712); test: Inhibition of CYP2C9 in human liver microsomes using diclofenac as substrate preincubated for 5 mins followed by NADPH cofactor addition and measured after 10 mins by LC-MS/MS analysis; format: ADME
Sequence of Cytochrome P450 2C9 (P11712 whole entry): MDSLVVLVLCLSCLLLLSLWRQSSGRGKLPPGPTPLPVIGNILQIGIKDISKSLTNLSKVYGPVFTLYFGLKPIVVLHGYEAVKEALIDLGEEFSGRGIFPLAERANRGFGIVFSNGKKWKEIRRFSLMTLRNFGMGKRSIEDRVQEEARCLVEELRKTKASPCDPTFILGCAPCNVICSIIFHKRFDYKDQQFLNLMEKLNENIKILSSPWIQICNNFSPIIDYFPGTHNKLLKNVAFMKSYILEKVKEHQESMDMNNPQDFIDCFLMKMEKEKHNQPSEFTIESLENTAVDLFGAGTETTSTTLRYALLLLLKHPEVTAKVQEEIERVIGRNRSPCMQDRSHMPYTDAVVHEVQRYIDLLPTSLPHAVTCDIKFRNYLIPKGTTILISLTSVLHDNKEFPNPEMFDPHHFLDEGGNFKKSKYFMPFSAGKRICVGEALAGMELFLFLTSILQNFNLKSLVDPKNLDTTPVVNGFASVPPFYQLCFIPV

[2] = Ratio of drug level in brain to plasma in Sprague-Dawley rat at 3 mg/kg, iv or 10 mg/kg, po administered as single dose via gavage by LC-MS/MS analysis; format: ADME, organism-based; settings: brain and plasma, read-out: BPR
[3] = AUC (0 to 48 hrs) in liver of Sprague-Dawley rat at 10 mg/kg, po administered as single dose via gavage by LC-MS/MS analysis; format: ADME, organism-based; parameters: time < 48 hr, dose 10 mg/kg, route oral
[4] = Drug level in plasma of Sprague-Dawley rat at 10 mg/kg, po administered as single dose via gavage measured at 2 hrs by LC-MS/MS analysis; format: ADME, organism-based
[5] = Intrinsic metabolic stability in human liver microsomes assessed as metabolic turnover rate per mg protein at 1 uM preincubated for 5 mins followed by NADPH cofactor addition and measured after 30 mins by LC-MS/MS analysis; format: ADME, Microsome; settings: 0.5 h
[6] = Elimination half life in Sprague-Dawley rat at 3 mg/kg, iv or 10 mg/kg, po administered as single dose via gavage by LC-MS/MS analysis; format: ADME, organism-based; settings: in vivo, read-out: beta t1/2 (converted)
[7] = Intrinsic metabolic stability in rat liver microsomes assessed as metabolic turnover over per mg protein at 1 uM preincubated for 5 mins followed by NADPH cofactor addition and measured after 30 mins by LC-MS/MS analysis; format: ADME, Microsome; settings: 0.5 h
[8] = Drug level in liver of Sprague-Dawley rat at 10 mg/kg, po administered as single dose via gavage measured at 48 hrs by LC-MS/MS analysis; format: ADME, organism-based; settings: read-out: Drug uptake
[9] = Volume of distribution at steady state in Sprague-Dawley rat at 3 mg/kg, iv administered as single dose by LC-MS/MS analysis; format: ADME, organism-based; settings: in vivo, read-out: Vdss
[10] = Drug level in plasma of Sprague-Dawley rat at 10 mg/kg, po administered as single dose via gavage measured at 24 hrs by LC-MS/MS analysis; format: ADME, organism-based
[11] = AUC (0 to 48 hrs) in brain of Sprague-Dawley rat at 10 mg/kg, po administered as single dose via gavage by LC-MS/MS analysis; format: ADME, organism-based; parameters: dose 10 mg/kg, time < 48 hr, route oral
[12] = Ratio of AUC (0 to 48 hrs) in brain to plasma of Sprague-Dawley rat at 10 mg/kg, po administered as single dose via gavage by LC-MS/MS analysis; format: ADME, organism-based; settings: brain and plasma, read-out: Ratio AUC
[13] = molecular target: T1, Fatty-acid amide hydrolase 1 (Rattus norvegicus, UniProt P97612); test: Inhibition of rat FFAH expressed in Escherichia coli using AAMCA as substrate incubated for 1 min measured for 50 mins by fluorescence assay
T1 sequence (P97612 whole entry): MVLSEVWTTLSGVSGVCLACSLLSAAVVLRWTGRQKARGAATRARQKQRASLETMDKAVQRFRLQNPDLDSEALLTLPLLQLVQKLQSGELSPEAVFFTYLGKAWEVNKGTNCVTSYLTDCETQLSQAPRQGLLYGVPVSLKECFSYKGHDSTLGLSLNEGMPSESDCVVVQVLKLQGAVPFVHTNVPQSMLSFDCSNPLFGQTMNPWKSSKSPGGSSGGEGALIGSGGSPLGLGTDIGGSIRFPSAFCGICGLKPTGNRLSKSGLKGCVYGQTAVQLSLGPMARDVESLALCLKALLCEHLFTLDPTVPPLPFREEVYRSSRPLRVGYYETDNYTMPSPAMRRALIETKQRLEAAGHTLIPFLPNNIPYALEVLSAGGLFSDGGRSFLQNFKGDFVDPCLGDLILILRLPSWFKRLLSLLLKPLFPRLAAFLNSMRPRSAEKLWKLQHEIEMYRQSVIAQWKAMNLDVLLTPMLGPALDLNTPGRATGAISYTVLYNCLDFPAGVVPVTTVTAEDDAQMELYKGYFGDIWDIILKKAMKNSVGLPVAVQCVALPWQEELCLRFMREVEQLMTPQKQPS

Cytochrome P450 1A2 = molecular target: T2, Cytochrome P450 1A2 (Homo sapiens, UniProt P05177); test: Inhibition of CYP1A2 in human liver microsomes using phenacetin as substrate preincubated for 5 mins followed by NADPH cofactor addition and measured after 10 mins by LC-MS/MS analysis; format: ADME
T2 sequence (P05177 whole entry): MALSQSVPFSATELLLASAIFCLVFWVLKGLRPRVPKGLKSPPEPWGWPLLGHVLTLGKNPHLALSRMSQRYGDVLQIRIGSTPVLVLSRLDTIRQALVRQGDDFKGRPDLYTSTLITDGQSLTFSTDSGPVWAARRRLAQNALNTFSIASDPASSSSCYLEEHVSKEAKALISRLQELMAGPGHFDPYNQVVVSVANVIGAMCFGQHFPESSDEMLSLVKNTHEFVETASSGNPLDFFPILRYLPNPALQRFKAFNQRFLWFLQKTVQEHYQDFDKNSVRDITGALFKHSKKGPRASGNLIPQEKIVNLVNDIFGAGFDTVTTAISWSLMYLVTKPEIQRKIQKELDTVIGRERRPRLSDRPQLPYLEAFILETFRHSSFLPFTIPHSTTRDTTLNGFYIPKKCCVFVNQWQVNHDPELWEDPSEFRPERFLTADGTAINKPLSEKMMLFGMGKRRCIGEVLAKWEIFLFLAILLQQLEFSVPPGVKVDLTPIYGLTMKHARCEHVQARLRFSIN

Cytochrome P450 2D6 = Cytochrome P450 2D6 (Homo sapiens, UniProt P10635); test: Inhibition of CYP2D6 in human liver microsomes using dextromethorphan as substrate preincubated for 5 mins followed by NADPH cofactor addition and measured after 10 mins by LC-MS/MS analysis; format: ADME
Sequence of Cytochrome P450 2D6 (P10635 whole entry): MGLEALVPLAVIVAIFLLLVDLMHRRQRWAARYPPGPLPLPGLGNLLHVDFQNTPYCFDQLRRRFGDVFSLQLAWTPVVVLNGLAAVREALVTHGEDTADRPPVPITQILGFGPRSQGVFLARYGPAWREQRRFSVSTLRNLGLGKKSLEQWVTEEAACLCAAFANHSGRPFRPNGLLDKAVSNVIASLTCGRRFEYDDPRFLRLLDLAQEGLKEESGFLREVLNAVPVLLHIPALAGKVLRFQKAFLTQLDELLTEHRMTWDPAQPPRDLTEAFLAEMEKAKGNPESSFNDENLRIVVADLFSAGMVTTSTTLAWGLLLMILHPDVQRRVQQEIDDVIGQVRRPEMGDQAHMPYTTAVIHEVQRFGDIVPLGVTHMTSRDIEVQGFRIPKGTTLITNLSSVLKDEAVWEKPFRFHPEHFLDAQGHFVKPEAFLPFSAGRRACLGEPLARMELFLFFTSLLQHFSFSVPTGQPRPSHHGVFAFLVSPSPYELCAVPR

[14] = Drug level in brain of Sprague-Dawley rat at 10 mg/kg, po administered as single dose via gavage measured at 4 hrs by LC-MS/MS analysis; format: ADME, organism-based; settings: read-out: Drug uptake
Cytochrome P450 3A4 = Cytochrome P450 3A4 (Homo sapiens, UniProt P08684); test: Inhibition of CYP3A4 in human liver microsomes using midazolam as substrate preincubated for 5 mins followed by NADPH cofactor addition and measured after 10 mins by LC-MS/MS analysis; format: ADME
Sequence of Cytochrome P450 3A4 (P08684 whole entry): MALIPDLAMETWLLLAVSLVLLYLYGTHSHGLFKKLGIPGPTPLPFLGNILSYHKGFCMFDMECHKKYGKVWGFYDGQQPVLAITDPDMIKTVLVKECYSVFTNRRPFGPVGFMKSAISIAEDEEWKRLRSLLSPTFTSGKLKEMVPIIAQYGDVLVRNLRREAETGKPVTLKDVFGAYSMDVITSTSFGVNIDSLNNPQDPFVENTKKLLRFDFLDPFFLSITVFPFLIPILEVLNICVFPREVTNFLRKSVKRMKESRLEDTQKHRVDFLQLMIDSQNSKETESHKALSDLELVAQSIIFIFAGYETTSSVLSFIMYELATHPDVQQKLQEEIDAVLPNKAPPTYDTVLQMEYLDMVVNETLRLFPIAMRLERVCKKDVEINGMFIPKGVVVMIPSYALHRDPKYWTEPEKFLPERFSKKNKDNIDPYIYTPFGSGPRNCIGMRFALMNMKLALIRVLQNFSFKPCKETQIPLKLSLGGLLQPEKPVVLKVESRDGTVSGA

[15] = Clearance in Sprague-Dawley rat at 3 mg/kg, iv or 10 mg/kg, po administered as single dose via gavage by LC-MS/MS analysis; format: ADME, organism-based; settings: in vivo
[16] = AUC (0 to 48 hrs) in Sprague-Dawley rat at 3 mg/kg, iv administered as single dose by LC-MS/MS analysis; format: ADME, organism-based; parameters: dose 3 mg/kg, time < 48 hr, route intravenous; settings: in vivo
[17] = Drug level in liver of Sprague-Dawley rat at 10 mg/kg, po administered as single dose via gavage measured at 32 hrs by LC-MS/MS analysis; format: ADME, organism-based; settings: read-out: Drug uptake
[18] = Drug level in brain of Sprague-Dawley rat at 10 mg/kg, po administered as single dose via gavage measured at 2 hrs by LC-MS/MS analysis; format: ADME, organism-based; settings: read-out: Drug uptake

Drug metabolism [5] | Drug metabolism [7] | Structure (SMILES) | AUC(0-t) at 48 h [1] | IC50 (Cytochrome P450 2C9) | Kp [2] | AUC(0-t) at 48 h [3] | concentration at 2 h [4] | half-life [6] | concentration at 48 h [8] | Vd [9] | concentration at 24 h [10] | AUC(0-t) at 48 h [11] | Kp [12] | IC50 (Cytochrome P450 1A2) | IC50 (Cytochrome P450 2D6) | concentration at 4 h [14] | IC50 (Cytochrome P450 3A4) | clearance [15] | AUC(0-t) at 48 h [16] | concentration at 2 h [18] | also measured
0.04 nmol/min/mg | < 0.04 nmol/min/mg | O=C(N[C@H]1CC/C(=C\c2cccc(Oc3ccc(C(F)(F)F)cn3)c2)CC1)c1cccnc1 (stereo not drawn) | 55 µM·h | 2.7 µM | 1.5 | 580 µM·h | 7.2 µM | 5.1 h | – | 0.9 L/kg | 0.5 µM | 84 µM·h | 1.5 | > 10 µM | > 10 µM | 6 µM | 2.4 µM | 2.4 mL/min/kg | 47 µM·h | 6.1 µM | –
0.06 to 0.07 nmol/min/mg | 0.04 to 0.09 nmol/min/mg | Cc1cc(C(=O)N[C@H]2CC/C(=C\c3cccc(Oc4ccc(C(F)(F)F)cn4)c3)CC2)cnc1N (stereo not drawn) | 166 µM·h | 9.2 µM | 0.5 | 1130 µM·h | 6.7 µM | 17 h | 9.1 µM | 1.2 L/kg | 3.3 µM | 80.1 µM·h | 0.5 | > 12.5 µM | > 12.5 µM | 3.1 µM | > 12.5 µM | 0.8 mL/min/kg | 109 µM·h | 2 µM | IC50 [13]: 0.0092 µM; concentration at 32 h [17]: 20 µM
– | – | Nc1ccc(C(=O)N[C@H]2CC/C(=C\c3cccc(Oc4ccc(C(F)(F)F)cn4)c3)CC2)cn1 (stereo not drawn) | 212 µM·h | 3.4 µM | 0.6 | 1950 µM·h | 8.8 µM | 9.2 h | 16.2 µM | 0.6 L/kg | 4.4 µM | 135 µM·h | 0.6 | > 12.5 µM | > 12.5 µM | 4.5 µM | > 12.5 µM | 0.7 mL/min/kg | 152 µM·h | 5.1 µM | IC50 [13]: 0.0116 µM; concentration at 32 h [17]: 26.5 µM

Structure (SMILES) | Drug metabolism [5] | Drug metabolism [7] | AUC(0-t) at 48 h [1] | IC50 (Cytochrome P450 2C9) | Kp [2] | AUC(0-t) at 48 h [3] | concentration at 2 h [4] | half-life [6] | concentration at 48 h [8] | Vd [9] | concentration at 24 h [10] | AUC(0-t) at 48 h [11] | Kp [12] | IC50 (Cytochrome P450 1A2) | IC50 (Cytochrome P450 2D6) | concentration at 4 h [14] | IC50 (Cytochrome P450 3A4) | clearance [15] | AUC(0-t) at 48 h [16] | concentration at 2 h [18] | also measured
Nc1ncc(C(=O)N[C@H]2CC/C(=C\c3cccc(Oc4ccc(C(F)(F)F)cn4)c3)CC2)cn1 (stereo not drawn) | ≤ 0.04 nmol/min/mg | ≤ 0.04 nmol/min/mg | 237 µM·h | 6.5 µM | 0.8 | 1020 µM·h | 7.2 µM | 17.2 h | 8.9 µM | 0.8 L/kg | 7 µM | 192 µM·h | 0.8 | > 12.5 µM | > 12.5 µM | 6.3 µM | > 12.5 µM | 0.6 mL/min/kg | 155 µM·h | 6.5 µM | IC50 [13]: 0.0062 µM; concentration at 32 h [17]: 13 µM
